Data on 17 compounds can be found in US9127016B2, “Small molecule inhibitors of Dusp6 and uses therefor” (University of Pittsburgh—Of the Commonwealth System of …, priority 2009, dated 2015).

Test [1] relates to FGF signaling (d2EGFP reporter). Put plainly: BCI analog SAR: d2EGFP intensity in transgenic zebrafish embryos by densitometry. The class given is in vivo. As to conditions: 20 μM, 24 hpf embryos, 6 h; for Activity (BCI = 100): d2EGFP intensity in the dorsal region. The protocol: Transgenic zebrafish embryos (24 hpf) were treated with 20 μM solution of BCI analogs in 0.5% aq DMSO and fluorescence photomicrographs were taken after 6 h. The effectiveness of BCI analogs was evaluated by densitometry (ImageJ) of d2EGFP intensity in the dorsal region.

The test system of test [2] is FGF signaling (Tg(Dusp6:d2EGFP)pt6 reporter). Put plainly: Transgenic zebrafish chemical screen, d2EGFP fluorescence. The class given is in vivo. The note with it: 24 hpf embryos, 6-8 hours; analogs even at four-fold higher concentrations. The protocol:
Tg(dusp6:d2EGFP)pt6 embryos were obtained by natural crossings and incubated at 28.5° C. until they reached 24 hpf. Five transgenic embryos were placed into each well from a 96-well plate in 200 μl of E3, and a 0.5% DMSO solution was added along with compound from each library at 10 μM. The NCI diversity set (NCl/NIH), the Natural Products library (MicroSource Discovery Systems Inc.) and Phosphatase targeted set (Chembridge) were screened in this study. (E)-2-Benzylidene-3-(cyclohexylamino)-2,3-dihydro-1H-inden-1-one (BCI; also known as NSC150117) was identified as a compound that enhanced fluorescence in treated transgenic embryos. Treated embryos were photographed under the same settings for exposure, gain and magnification for each picture using a MZFLIII (Leica) microscrope and fluorescent illumination for GFP using endow cube (Chroma Technology Corp., Rockingham, Vt.). Qimaging software and the Retiga Exi camera (Qimaging, Burnaby, BC Canada) were used to capture the images.
We previously described the generation of a transgenic zebrafish line, (Tg(Dusp6:d2EGFP)pt6) that expresses destabilized green fluorescent protein (d2EGFP) under the control of FGF signaling (Molina, G. A., et al. BMC Dev Biol 7, 62 (2007)). Using Tg(Dusp6:d2EGFP) embryos as a biosensor for FGF signaling, we screened over 5000 diverse compounds assembled from chemical libraries for small molecule modulators of this pathway. Five transgenic embryos at 24 hours post fertilization (hpf) were arrayed into each well of a 96-well plate containing test compounds at 10 μM. d2EGFP intensity in treated embryos was visually analyzed and compared to vehicle control (0.5% DMSO) after 6-8 hours. […] To confirm that BCI hyperactivated FGF signaling, we treated embryos prior to gastrulation (5 hpf), and we analyzed by whole mount in situ hybridization, the expression of ntl (zebrafish brachyury), a known FGF target gene (Latinkic, B. V. et al. Genes Dev 11, 3265-76 (1997)). […] We next determined the BCI structural features required to enhance FGF signaling. Two analogs, (E)-2-benzylidene-2,3-dihydro-1H-inden-1-one (BI) lacking the cyclohexylamino group, and 3-(cyclohexylamino)-2,3-dihydro-1H-inden-1-one (ICD) lacking the benzylidene group were synthesized).

The target in test [3] is T1, Dusp6 (Homo sapiens, UniProt Q16828).
T1 sequence (Q16828 1-381): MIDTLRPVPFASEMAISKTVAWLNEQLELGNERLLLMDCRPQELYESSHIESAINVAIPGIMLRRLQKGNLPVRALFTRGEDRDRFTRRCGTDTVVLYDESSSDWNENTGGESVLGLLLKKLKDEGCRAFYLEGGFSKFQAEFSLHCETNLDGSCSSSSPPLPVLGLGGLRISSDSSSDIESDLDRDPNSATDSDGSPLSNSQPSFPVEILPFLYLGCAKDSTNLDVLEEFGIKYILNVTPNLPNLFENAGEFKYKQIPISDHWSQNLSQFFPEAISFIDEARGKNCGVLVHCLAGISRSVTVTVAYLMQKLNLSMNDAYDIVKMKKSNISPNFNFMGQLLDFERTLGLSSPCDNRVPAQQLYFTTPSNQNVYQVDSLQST
As to the kind of experiment: Basal Dusp6 dephosphorylation of OMFP. The test is classed as biochemical. On the set-up: His; made in house. The method, then: For OMFP based ERK2 induced activation of Dusp6, recombinant His-tagged Dusp6 was expressed from a bacterial expression vector and 250 ng were incubated with the indicated concentrations of NSC95397 or BCI. OMFP was added at its apparent Km (100 μM) (Vogt, A. et al. J Biol Chem 280, 19078-86 (2005)). The final reaction volume was 15 μl. After 1 h at RT, OMF fluorescence was measured on an M5 multimode reader (Molecular Devices) at excitation/emission wavelengths of 485/525 nm. To assay activated Dusp6, 210 ng or 2.1 μg of recombinant ERK2 (Cell signaling) were added to Dusp6(210 ng)/BCI(100 μM) mixtures to measure activation at 1:1 and 1:10 ratio of substrate to enzyme. OMFP was immediately added and fluorescence (ex485/em525 nm) was read every 10 min for 130 min. Fold activation was calculated at 60 mins in each experiment.

Test [4] has as its target T2, Cdc25B (Homo sapiens, UniProt P30305).
T2 sequence (P30305 1-580): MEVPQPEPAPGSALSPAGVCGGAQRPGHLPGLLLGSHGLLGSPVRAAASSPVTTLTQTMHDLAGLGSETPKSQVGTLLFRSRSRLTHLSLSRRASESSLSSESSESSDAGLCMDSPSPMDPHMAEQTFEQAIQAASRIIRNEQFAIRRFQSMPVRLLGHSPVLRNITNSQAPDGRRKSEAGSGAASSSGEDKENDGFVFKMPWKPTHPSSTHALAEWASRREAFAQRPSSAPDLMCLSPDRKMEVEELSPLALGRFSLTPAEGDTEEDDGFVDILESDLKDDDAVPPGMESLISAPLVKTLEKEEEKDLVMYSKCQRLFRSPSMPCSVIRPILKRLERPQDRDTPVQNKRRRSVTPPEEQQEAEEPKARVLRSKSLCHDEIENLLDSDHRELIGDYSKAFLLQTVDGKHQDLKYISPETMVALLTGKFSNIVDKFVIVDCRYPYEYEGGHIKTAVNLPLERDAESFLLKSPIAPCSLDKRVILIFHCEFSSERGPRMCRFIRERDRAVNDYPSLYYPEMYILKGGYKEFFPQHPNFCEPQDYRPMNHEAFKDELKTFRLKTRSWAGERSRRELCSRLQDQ
As to the kind of experiment: OMFP phosphatase assay, Cdc25B. The note with it: 100 μM, positive control. The class given is biochemical. The method, then: (§1) Enzyme activities in the presence or absence of BCI were measured using the artificial substrate […] at concentrations equal to the Km of each enzyme (Cdc25B, PTP1B & Dusp3/VHR) and at optimal pH for individual enzyme activity in a 96-well microtiter plate assay based on previously described methods by Lazo et al. (J Med Chem 44, 4042-9 (2001) and Lazo, J. S. et al. Bioorg Med Chem 14, 5643-50 (2006)). Briefly, the standard assay conditions contained 0.02 mg/ml OMFP in assay buffer (30 mM Tris-HCl (pH8.0), 75 mM NaCl, 1 mM EDTA, 0.33% BSA and 1 mM DTT). Fluorescence emission was measured after a sixty-minute incubation period at ambient temperature using a multiwell plate reader (SpectraMax m5, […]; excitation 485 nm, emission 525 nm). Sodium orthovanadate (100 μM) was used as a positive control for full phosphatase inhibition. IC50 concentrations were determined from three experiments using 10 concentrations of BCI ranging from 300 μM to 15.2 nM and GraphPad Prism 5.0 software.

The target of test [5] is T3, PTP1B (Homo sapiens, UniProt P18031).
T3 sequence (P18031 1-435): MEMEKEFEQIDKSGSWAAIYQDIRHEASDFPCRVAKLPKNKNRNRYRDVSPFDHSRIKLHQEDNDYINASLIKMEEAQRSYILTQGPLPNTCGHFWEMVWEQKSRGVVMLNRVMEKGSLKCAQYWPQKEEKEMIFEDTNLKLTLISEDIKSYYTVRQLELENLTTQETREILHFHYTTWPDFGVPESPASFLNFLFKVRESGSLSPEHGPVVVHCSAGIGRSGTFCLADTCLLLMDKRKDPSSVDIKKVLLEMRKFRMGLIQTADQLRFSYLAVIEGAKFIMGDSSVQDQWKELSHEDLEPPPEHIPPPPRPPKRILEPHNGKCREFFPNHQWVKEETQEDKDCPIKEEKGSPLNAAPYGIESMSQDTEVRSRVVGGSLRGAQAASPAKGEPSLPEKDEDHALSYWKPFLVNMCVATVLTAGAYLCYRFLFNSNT
Put plainly: OMFP phosphatase assay, PTP1B. The test is classed as biochemical. As to conditions: 100 μM, positive control. The protocol:
as §1

The target of test [6] is Dusp3/VHR (Homo sapiens, UniProt P51452). As to the kind of experiment: OMFP phosphatase assay, Dusp3/VHR. The test is classed as biochemical. As to conditions: 100 μM, positive control. The method, then:
as §1

Structures are written as SMILES.

Sequence of Dusp3/VHR (P51452 whole entry): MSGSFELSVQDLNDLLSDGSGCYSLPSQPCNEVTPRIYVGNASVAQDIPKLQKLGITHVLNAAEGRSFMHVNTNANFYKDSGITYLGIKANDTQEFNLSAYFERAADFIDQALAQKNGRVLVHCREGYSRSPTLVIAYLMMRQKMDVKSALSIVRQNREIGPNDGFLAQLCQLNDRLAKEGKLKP

`O=C1/C(=C/c2ccccc2)C(NC2CCCCC2)c2ccccc21` (single isomer, unassigned; (-)) [(−)-BCI]: in test [1], the “activity of the levorotatory enantiomer relative to the dextrorotatory form” value is reported as “twice” and the “Activity (BCI = 100)” value was 156.

Turning to `O[C@H]1/C(=C/c2ccccc2)[C@H](NC2CCCCC2)c2ccccc21` (stereo in doubt) [Compound 18, 2-Benzylidene-3-cyclohexylaminoindan-1-ol], in test [1], the “Activity (BCI = 100)” value came out at 26.

For the compound `O=C1/C(=C/c2ccccc2)Cc2ccccc21` [Compound 1, (E)-2-benzylidene-2,3-dihydro-1H-inden-1-one], in test [1], the “in vivo activity relative to BCI, in words” value is “inactive” and the “Activity (BCI = 100)” value amounted to 0. Also, the “d2EGFP fluorescence in treated transgenic embryos” value in test [2] was “inactive”.

With `O=C1/C(=C/c2ccccc2)C(NC2CCCC2)c2ccccc21` (stereo not shown) [Compound 4], the “Activity (BCI = 100)” value in test [1] was 123.

`O=C1/C(=C/c2ccccc2)C(NC2CCCCCC2)c2ccccc21` (stereo not shown) [Compound 5, 2-Benzylidene-3-cycloheptylaminoindan-1-one]: the “Activity (BCI = 100)” value in test [1] turned out to be 127.

For `O=C1/C(=C/c2ccccc2)C(Nc2ccccc2)c2ccccc21` (stereo not shown) [Compound 6], the “Activity (BCI = 100)” value in test [1] is 7.

For `O=C1/C(=C/c2ccccc2)C(N2CCCCC2)c2ccccc21` (stereo not shown) [Compound 7], the “Activity (BCI = 100)” value in test [1] turned out to be 114.

Turning to `O=C1/C(=C/c2ccccc2)C(N2CCOCC2)c2ccccc21` (stereo not shown) [Compound 9], the “Activity (BCI = 100)” value in test [1] is on record as 114.

In the case of `O=C1/C(=C/c2ccccc2)C(N2CCSCC2)c2ccccc21` (stereo not shown) [Compound 10], the “Activity (BCI = 100)” value in test [1] came to 27.

Consider `O=C1/C(=C/c2ccccc2)C(N2CCNCC2)c2ccccc21` (stereo not shown) [Compound 11], for which the “Activity (BCI = 100)” value in test [1] is 22.

Regarding `CN1CCN(C2/C(=C\c3ccccc3)C(=O)c3ccccc32)CC1` (stereo not shown) [Compound 12], the “Activity (BCI = 100)” value in test [1] turned out to be 0.

`CC(=O)N1CCN(C2/C(=C\c3ccccc3)C(=O)c3ccccc32)CC1` (stereo not shown) [Compound 13]: the “Activity (BCI = 100)” value in test [1] stood at 47.

Regarding `O=C1/C(=C/c2ccc(Cl)cc2)C(NC2CCCCC2)c2ccccc21` (stereo not shown) [Compound 14], in test [1], the “activity as compared to BCI” value came out at 52% and the “Activity (BCI = 100)” value came out at 52.

Turning to `N#Cc1ccc(/C=C2/C(=O)c3ccccc3C2NC2CCCCC2)cc1` (stereo not shown) [Compound 15], in test [1], the “activity as compared to BCI” value is 20% and the “Activity (BCI = 100)” value is 20.

As to `O=C1N[C@H]2[C@H](CS[C@H]2CCCCC(=O)N[C@H]2CC[C@H](NC3/C(=C\c4ccccc4)C(=O)c4ccccc43)CC2)N1` (stereo partly shown) [Compound 19], in test [1], the “in vivo activity relative to BCI, in words” value is recorded as “no effect on FGF signaling” and the “Activity (BCI = 100)” value is given as “No activity,”.

For `O=C1C(SCCO)=C(SCCO)C(=O)c2ccccc21` [NSC95397, 2,3-bis(2-hydroxyethylthio)naphthalene-1,4-dione, reference compound], the “effect on basal Dusp6 activity toward OMFP” value in test [3] is given as “blocked basal Dusp6 activity toward OMFP”.

For the compound `[Na+].[Na+].[Na+].[O]=[V]([O-])([O-])[O-]` [Sodium orthovanadate, reference compound], the “inhibition of Cdc25B” value in test [4] is 100%. Besides, the “inhibition of PTP1B” value in test [5] was 100%. The “inhibition of Dusp3/VHR” value in test [6] is listed as 100%.
